Results: patent US20200261584A1, “STABILIZED PROTEIN GEL PREPARATION” (TERUMO KABUSHIKI KAISHA, priority 2013, published 2020)

Experiment: Oxidative stress, Example 29 (α-hANP, hydrogen peroxide, HPLC)
Format: physicochemical
Conditions: 0.1 mg/mL, solution E pH 4.8, 0.2% hydrogen peroxide, 37° C., one hour
Procedure: A gel preparation 29-48 of formulation 48 containing 0.1 mg/mL of α-hANP was prepared in an amount of 500 μL in a microtube, in the same manner as in the preparing method in (1) of Example 2, while using a solution E (pH 4.8) containing 37.5 mg/mL of D-mannitol and 5 mg/mL of glycine, in place of the solution A. Then, 50 μL of 0.2% hydrogen peroxide was added to the gel preparation, followed by incubation at 37° C. for one hour. Immediately after the incubation, 200 μL of 0.4 M methionine and 250 μL of water were added to the sample, and the gel preparation was disintegrated by a microspatula. The sample was then centrifuged, the supernatant was filtered through a membrane filter to remove aggregates, and the amount of α-hANP contained in the solution was determined by the HPLC method. Note that this experiment was conducted with N=2, and the remaining rate of α-hANP was expressed based on the starting amount. Besides, as a control, an α-hANP solution prepared by dissolving α-hANP in the solution E so as to obtain a concentration of 0.1 mg/mL was subjected to the same process as above, exclusive of the disintegrating operation by the microspatula.

## CC[C@H](C)[C@@H]1NC(=O)[C@H](CCCNC(=N)N)NC(=O)[C@H](CC(=O)O)NC(=O)[C@H](CCSC)NC(=O)[C@H](CCCNC(=N)N)NC(=O)CNC(=O)CNC(=O)[C@H](Cc2ccccc2)NC(=O)[C@@H](NC(=O)[C@H](CO)NC(=O)[C@H](CO)NC(=O)[C@H](CCCNC(=N)N)NC(=O)[C@H](CCCNC(=N)N)NC(=O)[C@H](CC(C)C)NC(=O)[C@@H](N)CO)CSSC[C@@H](C(=O)N[C@@H](CC(N)=O)C(=O)N[C@@H](CO)C(=O)N[C@@H](Cc2ccccc2)C(=O)N[C@@H](CCCNC(=N)N)C(=O)N[C@@H](Cc2ccc(O)cc2)C(=O)O)NC(=O)CNC(=O)[C@H](CC(C)C)NC(=O)CNC(=O)[C@H](CO)NC(=O)[C@H](CCC(N)=O)NC(=O)[C@H](C)NC(=O)CNC1=O [α-hANP solution, α-human atrial natriuretic polypeptide]
  Remaining rate of α-hANP after loaded with oxidative stress, run 1: 65.4%
  Remaining rate of α-hANP after loaded with oxidative stress, run 2: 64.7%
